According to patent US12673918B2, “Small molecule RPN13 inhibitors with antitumor properties” (The Johns Hopkins University, priority 2019, dated 2026):
Like-named read-outs stand apart in the source and are kept apart here.

How the values were obtained:
SKOV3 cells = assay: XTT cytotoxicity assay, SKOV3; assay type: cell-based, human
Excerpt: (§1) The impact of substituents of the aromatic ring on the potency of molecules was also examined. The presence of either an electron withdrawing group (EWG) or an electron donating group (EDG) influences the reactivity of a Michael acceptor towards the target protein but can also impact specificity/selectivity.

HeLa cells = assay: XTT cytotoxicity assay, HeLa; assay type: cell-based, human
Excerpt: as §1

[1] = Table 2, read-out: IC50 SKOV3 (bridge compounds)
[2] = Table 2, read-out: IC50 HeLa (bridge compounds)
[3] = Table 1, XTT assay, read-out: IC50 SKOV3
[4] = Table 1, XTT assay, read-out: IC50 HeLa

SMILES | IC50 (SKOV3 cells; [3]) | IC50 (HeLa cells; [4]) | also measured
CC(=O)N1C2CCC1C(=Cc1ccc(Cl)c(Cl)c1)C(=O)C2=Cc1ccc(Cl)c(Cl)c1 [RA335] | – | – | IC50 (SKOV3 cells; [1]): 251 nM; IC50 (HeLa cells; [2]): 161 nM
CC(=O)N[C@@H](Cc1ccccc1)C(=O)N1C/C(=C\c2ccc(Cl)c(Cl)c2)C(=O)/C(=C/c2ccc(Cl)c(Cl)c2)C1 [RA190Ac] | 68 nM | 46 nM | –
O=C1C(=Cc2ccc(Cl)c(Cl)c2)CNCC1=Cc1ccc(Cl)c(Cl)c1 [RA7] | 654 nM | 532 nM | –
O=C1C(=CC=Cc2ccccc2)CNCC1=CC=Cc1ccccc1 [RA-Cinn] | > 5000 nM | > 5000 nM | –
COc1cc(C=C2CN(C(=O)C(N)Cc3ccccc3)CC(=Cc3cc(OC)c(OC)c(OC)c3)C2=O)cc(OC)c1OC (centres unmarked) [RA-TMP] | 125 nM | 78 nM | –
O=C1C(=Cc2ccc(Cl)c(Cl)c2)CN(C(=O)C(Cc2ccccc2)NC(=O)c2ccccc2)CC1=Cc1ccc(Cl)c(Cl)c1 (centres unmarked) [RA190Bn] | 121 nM | 86 nM | –
C=CC(=O)NC(Cc1ccccc1)C(=O)N1C2CCC1C(=Cc1ccc(Cl)c(Cl)c1)C(=O)C2=Cc1ccc(Cl)c(Cl)c1 (centres unmarked) [RA339] | – | – | IC50 (SKOV3 cells; [1]): 54 nM; IC50 (HeLa cells; [2]): 46 nM
NCC(=O)N1CC(=Cc2ccc(Cl)c(Cl)c2)C(=O)C(=Cc2ccc(Cl)c(Cl)c2)C1 [RA7-Gly] | 78 nM | 65 nM | –
O=C1C(=Cc2ccc([N+](=O)[O-])cc2)C2CCC(N2)C1=Cc1ccc([N+](=O)[O-])cc1 [RA331] | – | – | IC50 (SKOV3 cells; [1]): 301 nM; IC50 (HeLa cells; [2]): 236 nM
COc1cc(C(=O)NC(Cc2ccccc2)C(=O)N2CC(=Cc3ccc(Cl)c(Cl)c3)C(=O)C(=Cc3ccc(Cl)c(Cl)c3)C2)cc(OC)c1OC (centres unmarked) [RA190TMB] | 112 nM | 94 nM | –
CC(=O)NCCCCC(N)C(=O)NC(Cc1ccccc1)C(=O)N1CC(=Cc2ccc(Cl)c(Cl)c2)C(=O)C(=Cc2ccc(Cl)c(Cl)c2)C1 (centres unmarked) [RA310Ac] | 284 nM | 195 nM | –
CC(=O)N1C2CCC1C(=Cc1ccccc1)C(=O)C2=Cc1ccccc1 [RA337] | – | – | IC50 (SKOV3 cells; [1]): 231 nM; IC50 (HeLa cells; [2]): 186 nM
O=C1C(=Cc2ccc([N+](=O)[O-])cc2)CN(C(=O)C(Cc2ccccc2)NC(=O)C(F)(F)F)CC1=Cc1ccc([N+](=O)[O-])cc1 (centres unmarked) [RA183CF3] | 79 nM | 45 nM | –
C=CC(=O)N1C2CCC1C(=Cc1ccccc1)C(=O)C2=Cc1ccccc1 [RA336] | – | – | IC50 (SKOV3 cells; [1]): 185 nM; IC50 (HeLa cells; [2]): 146 nM
O=C1C(=Cc2ccc(Cl)c(Cl)c2)CN(C(=O)C(Cc2ccccc2)NS(=O)(=O)c2ccc(-c3ccno3)s2)CC1=Cc1ccc(Cl)c(Cl)c1 (centres unmarked) [RA190IAS] | 342 nM | 211 nM | –
CC(C)C(N)C(=O)N1CC(=Cc2ccc(Cl)c(Cl)c2)C(=O)C(=Cc2ccc(Cl)c(Cl)c2)C1 (centres unmarked) [RA7-Val] | 72 nM | 64 nM | –
O=C1C(=Cc2ccc(O)c(O)c2)CNCC1=Cc1ccc(O)c(O)c1 [DHBC] | 788 nM | 667 nM | –
O=C(CCCC[C@@H]1SCC2NC(=O)NC21)N[C@@H](Cc1ccccc1)C(=O)N1C/C(=C\c2ccc(Cl)c(Cl)c2)C(=O)/C(=C/c2ccc(Cl)c(Cl)c2)C1 (some centres unmarked) [RA190B, reference compound] | – | 346 nM | –
CCC(C)C(NC(=O)C(F)(F)F)C(=O)N1CC(=Cc2ccc(Cl)c(Cl)c2)C(=O)C(=Cc2ccc(Cl)c(Cl)c2)C1 (centres unmarked) [RA7-IleC] | 77 nM | 61 nM | –
O=C1C(=Cc2ccc(Cl)c(Cl)c2)CN(C(=O)C(Cc2ccccc2)NC(=O)c2cnccn2)CC1=Cc1ccc(Cl)c(Cl)c1 (centres unmarked) [RA190PyC] | 84 nM | 65 nM | –
O=C1C(=Cc2ccc(-c3cccnc3)cc2)C2CCC(N2)C1=Cc1ccc(-c2cccnc2)cc1 [RA332] | – | – | IC50 (SKOV3 cells; [1]): 376 nM; IC50 (HeLa cells; [2]): 243 nM
O=C(CCl)N[C@@H](Cc1ccccc1)C(=O)N1C/C(=C\c2ccc(Cl)c(Cl)c2)C(=O)/C(=C/c2ccc(Cl)c(Cl)c2)C1 [RA371] | – | – | IC50 (SKOV3 cells; Homo sapiens, SK-OV-3, Table 1, XTT assay, read-out: IC50 SKOV3): 47 nM; IC50 (HeLa cells; Homo sapiens, HeLa, Table 1, XTT assay, read-out: IC50 HeLa): 44 nM
O=C1C(=Cc2ccc(Cl)c(Cl)c2)CN(C(=O)C(Cc2ccccc2)NC(=O)c2cccnc2)CC1=Cc1ccc(Cl)c(Cl)c1 (centres unmarked) [RA233] | 98 nM | 76 nM | –
C=Cc1ccc(C(=O)NC(Cc2ccccc2)C(=O)N2CC(=Cc3ccc(Cl)c(Cl)c3)C(=O)C(=Cc3ccc(Cl)c(Cl)c3)C2)cc1 (centres unmarked) [RA190VBA] | 178 nM | 94 nM | –
O=C(O)CCC(=O)NC(Cc1ccccc1)C(=O)N1CC(=Cc2ccc(Cl)c(Cl)c2)C(=O)C(=Cc2ccc(Cl)c(Cl)c2)C1 (centres unmarked) [RA190SA] | 253 nM | 121 nM | –
O=C1C(=Cc2ccc(Cl)c(Cl)c2)CN(C(=O)C(Cc2ccccc2)NC(=O)c2ccccn2)CC1=Cc1ccc(Cl)c(Cl)c1 (centres unmarked) [RA190P] | 64 nM | 55 nM | –
Cc1ccc(S(=O)(=O)NC(Cc2ccccc2)C(=O)N2CC(=Cc3ccc(Cl)c(Cl)c3)C(=O)C(=Cc3ccc(Cl)c(Cl)c3)C2)cc1 (centres unmarked) [RA231] | 167 nM | 111 nM | –
O=C1C(=Cc2ccc(Cl)c(Cl)c2)CN(C(=O)C(Cc2ccccc2)NC(=O)C(F)(F)F)CC1=Cc1ccc(Cl)c(Cl)c1 (centres unmarked) [RA230] | 69 nM | 47 nM | –

SMILES | IC50 (SKOV3 cells; [3]) | IC50 (HeLa cells; [4]) | also measured
CC(C)CC(N)C(=O)N1CC(=Cc2ccc(Cl)c(Cl)c2)C(=O)C(=Cc2ccc(Cl)c(Cl)c2)C1 (centres unmarked) [RA228] | 98 nM | 66 nM | –
N#CCC(=O)NC(Cc1ccccc1)C(=O)N1CC(=Cc2ccc(Cl)c(Cl)c2)C(=O)C(=Cc2ccc(Cl)c(Cl)c2)C1 (centres unmarked) [RA190CA] | 84 nM | 51 nM | –
Cl.NCCCCC(N)C(=O)NC(Cc1ccccc1)C(=O)N1CC(=Cc2ccc(Cl)c(Cl)c2)C(=O)C(=Cc2ccc(Cl)c(Cl)c2)C1 (centres unmarked) [RA310] | 446 nM | 543 nM | fold decreased potency compared to RA190 (HeLa cells; cytotoxicity, Table 1 cell lines (HeLa, SKOV3)): 3 fold
CCCC(CCC)C(=O)NC(Cc1ccccc1)C(=O)N1CC(=Cc2ccc(Cl)c(Cl)c2)C(=O)C(=Cc2ccc(Cl)c(Cl)c2)C1 (centres unmarked) [RA190VA] | 87 nM | 74 nM | –
C=CC(=O)N1C2CCC1C(=Cc1ccc(-c3cccnc3)cc1)C(=O)C2=Cc1ccc(-c2cccnc2)cc1 [RA340] | – | – | IC50 (SKOV3 cells; [1]): 259 nM; IC50 (HeLa cells; [2]): 184 nM
C=CC(=O)N[C@@H](Cc1ccccc1)C(=O)N1C/C(=C\c2ccc(Cl)c(Cl)c2)C(=O)/C(=C/c2ccc(Cl)c(Cl)c2)C1 [RA190 ACR] | 62 nM | 42 nM | –
O=C(Nc1ccccc1)NC(Cc1ccccc1)C(=O)N1CC(=Cc2ccc(Cl)c(Cl)c2)C(=O)C(=Cc2ccc(Cl)c(Cl)c2)C1 (centres unmarked) [RA234] | 235 nM | 143 nM | –
NC(Cc1ccccc1)C(=O)N1CC(=Cc2ccc(Cl)c(C(F)(F)F)c2)C(=O)C(=Cc2ccc(Cl)c(C(F)(F)F)c2)C1 (centres unmarked) [RA-CTFP] | 81 nM | 56 nM | –
Cn1cncc1S(=O)(=O)NC(Cc1ccccc1)C(=O)N1CC(=Cc2ccc(Cl)c(Cl)c2)C(=O)C(=Cc2ccc(Cl)c(Cl)c2)C1 (centres unmarked) [RA190NMS] | 94 nM | 78 nM | –
O=C1C(=Cc2ccc([N+](=O)[O-])cc2)CNCC1=Cc1ccc(Cl)c(Cl)c1 [RA-asy] | 398 nM | 312 nM | –
O=C1C(=Cc2ccc(Cl)c(C(F)(F)F)c2)CNCC1=Cc1ccc(Cl)c(C(F)(F)F)c1 [RA-CTF] | 457 nM | 324 nM | –
CNC(=O)NC(Cc1ccccc1)C(=O)N1CC(=Cc2ccc(Cl)c(Cl)c2)C(=O)C(=Cc2ccc(Cl)c(Cl)c2)C1 (centres unmarked) [RA190MU] | 239 nM | 141 nM | –
NCCCCCC(=O)NC(Cc1ccccc1)C(=O)N1CC(=Cc2ccc(Cl)c(Cl)c2)C(=O)C(=Cc2ccc(Cl)c(Cl)c2)C1 (centres unmarked) [RA190AHA] | 88 nM | 62 nM | –
O=C1C(=Cc2ccc(Cl)c(Cl)c2)CN(C(=O)C(Cc2ccccc2)NC(=O)N2CCOCC2)CC1=Cc1ccc(Cl)c(Cl)c1 (centres unmarked) [RA232] | 77 nM | 61 nM | –
O=C(CCl)NC(Cc1ccccc1)C(=O)N1CC(=Cc2csc(Br)c2)C(=O)C(=Cc2csc(Br)c2)C1 (centres unmarked) [RA-BTPCA] | 189 nM | 132 nM | –
NC(Cc1ccc(O)cc1)C(=O)N1CC(=Cc2ccc(Cl)c(Cl)c2)C(=O)C(=Cc2ccc(Cl)c(Cl)c2)C1 (centres unmarked) [RA295] | 116 nM | 89 nM | –
CC(N)C(=O)N1CC(=Cc2ccc(Cl)c(Cl)c2)C(=O)C(=Cc2ccc(Cl)c(Cl)c2)C1 (centres unmarked) [RA7-Ala] | 92 nM | 68 nM | –
O=C1C(=Cc2ccccc2)C2CCC(N2)C1=Cc1ccccc1 [RA330] | – | – | IC50 (SKOV3 cells; [1]): 278 nM; IC50 (HeLa cells; [2]): 239 nM
NC(Cc1ccccc1)C(=O)N1CC(=Cc2ccc([N+](=O)[O-])cc2)C(=O)C(=Cc2ccc(Cl)c(Cl)c2)C1 (centres unmarked) [RA-asyP] | 62 nM | 48 nM | –
O=C1C(=Cc2ccc(Cl)c(Cl)c2)C2CCC(N2)C1=Cc1ccc(Cl)c(Cl)c1 [RA329] | – | – | IC50 (SKOV3 cells; [1]): 471 nM; IC50 (HeLa cells; [2]): 407 nM
C=CC(=O)NC(Cc1ccccc1)C(=O)N1CC(=Cc2ccc([N+](=O)[O-])cc2)C(=O)C(=Cc2ccc([N+](=O)[O-])cc2)C1 (centres unmarked) [RA183Acr] | 64 nM | 49 nM | –
C=CC(=O)N1C2CCC1C(=Cc1ccc(Cl)c(Cl)c1)C(=O)C2=Cc1ccc(Cl)c(Cl)c1 [RA334] | – | – | IC50 (SKOV3 cells; [1]): 186 nM; IC50 (HeLa cells; [2]): 101 nM
NC(Cc1ccccc1)C(=O)N1CC(=Cc2ccc(Cl)cc2)C(=O)C(=Cc2ccc(Cl)cc2)C1 (centres unmarked) [RA-4Cl] | 83 nM | 71 nM | –
CC(=O)NC(Cc1ccccc1)C(=O)N1CC(=Cc2ccc([N+](=O)[O-])cc2)C(=O)C(=Cc2ccc([N+](=O)[O-])cc2)C1 (centres unmarked) [RA183Ac] | 71 nM | 56 nM | –
C=CC(=O)N1C2CCC1C(=Cc1ccc([N+](=O)[O-])cc1)C(=O)C2=Cc1ccc([N+](=O)[O-])cc1 [RA333] | – | – | IC50 (SKOV3 cells; [1]): 167 nM; IC50 (HeLa cells; [2]): 112 nM
CS(=O)(=O)NC(Cc1ccccc1)C(=O)N1CC(=Cc2ccc(Cl)c(Cl)c2)C(=O)C(=Cc2ccc(Cl)c(Cl)c2)C1 (centres unmarked) [RA190MS] | 133 nM | 86 nM | –
CCC(C)C(N)C(=O)N1CC(=Cc2ccc(Cl)c(Cl)c2)C(=O)C(=Cc2ccc(Cl)c(Cl)c2)C1 (centres unmarked) [RA7-Ile] | 101 nM | 72 nM | –
